Assay results reported in PubChem BioAssay (NCI).
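Dose response: 5 concentrations. Exposure: 48 h. Format: 96-well plates. Endpoint: linear interpolation; highest concentration if not reached. TGI marks complete inhibition of growth.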

How the values were obtained:
Assay in all cases: inhibition of tumour cell growth, NCI panel, 48 h
NCI-H226 lung = tested on: NCI-H226 lung
MOLT-4 leukemia = tested on: MOLT-4 leukemia
HL-60(TB) leukemia = tested on: HL-60(TB) leukemia
HCC-2998 colon = tested on: HCC-2998 colon
BT-549 breast = tested on: BT-549 breast
RXF 393 renal = tested on: RXF 393 renal
U251 CNS = tested on: U251 CNS
SNB-19 CNS = tested on: SNB-19 CNS
NCI-H522 lung = tested on: NCI-H522 lung
A549 NSCLC = tested on: A549 NSCLC
MCF7 breast = tested on: MCF7 breast
DU-145 prostate = tested on: DU-145 prostate
HCT-116 colon = tested on: HCT-116 colon
HT29 colon = tested on: HT29 colon
IGROV1 ovarian = tested on: IGROV1 ovarian
HCT-15 colon = tested on: HCT-15 colon
SF-268 CNS = tested on: SF-268 CNS
UACC-257 melanoma = tested on: UACC-257 melanoma
A498 renal = tested on: A498 renal
CAKI-1 renal = tested on: CAKI-1 renal
EKVX NSCLC = tested on: EKVX NSCLC
SNB-75 CNS = tested on: SNB-75 CNS
HOP-92 NSCLC = tested on: HOP-92 NSCLC
SF-295 CNS = tested on: SF-295 CNS
UO-31 renal = tested on: UO-31 renal
MDA-N = tested on: MDA-N
KM12 colon = tested on: KM12 colon
HOP-62 NSCLC = tested on: HOP-62 NSCLC
PC-3 prostate = tested on: PC-3 prostate
LOX IMVI melanoma = tested on: LOX IMVI melanoma
SF-539 CNS = tested on: SF-539 CNS
ACHN renal = tested on: ACHN renal
T-47D breast = tested on: T-47D breast
OVCAR-4 ovarian = tested on: OVCAR-4 ovarian
SK-OV-3 ovarian = tested on: SK-OV-3 ovarian
786-0 renal = tested on: 786-0 renal
OVCAR-8 ovarian = tested on: OVCAR-8 ovarian
SW-620 colon = tested on: SW-620 colon
CCRF-CEM leukemia = tested on: CCRF-CEM leukemia
SK-MEL-5 melanoma = tested on: SK-MEL-5 melanoma
SN12C renal = tested on: SN12C renal
NCI-H23 lung = tested on: NCI-H23 lung
UACC-62 melanoma = tested on: UACC-62 melanoma
MALME-3M melanoma = tested on: MALME-3M melanoma
COLO 205 colon = tested on: COLO 205 colon
OVCAR-5 ovarian = tested on: OVCAR-5 ovarian
NCI-H460 lung = tested on: NCI-H460 lung
TK-10 renal = tested on: TK-10 renal
MDA-MB-231 breast = tested on: MDA-MB-231 breast
OVCAR-3 ovarian = tested on: OVCAR-3 ovarian
K-562 leukemia = tested on: K-562 leukemia
NCI/ADR-RES ovarian = tested on: NCI/ADR-RES ovarian
MDA-MB-435 = tested on: MDA-MB-435
SK-MEL-28 melanoma = tested on: SK-MEL-28 melanoma
SK-MEL-2 melanoma = tested on: SK-MEL-2 melanoma
HS 578T breast = tested on: HS 578T breast
M14 melanoma = tested on: M14 melanoma
SR leukemia = tested on: SR leukemia
RPMI-8226 leukemia = tested on: RPMI-8226 leukemia

Measured: TGI

CC[C@]12C=CCN3CC[C@@]4(c5cc(Br)c(OC)cc5N(C)[C@H]4[C@@](O)(C(=O)NN)[C@@H]1O)[C@@H]32
43.6 µM: SNB-75 CNS
99.2 µM: RXF 393 renal
69.3 µM: SF-539 CNS
70.6 µM: SK-MEL-2 melanoma
not listed: SR leukemia | RPMI-8226 leukemia
> 100 µM: all other assays above

CC(C(=O)c1ccccc1)C(c1ccccc1)N1CCOCC1 (stereo unspecified)
not listed: HCC-2998 colon | UO-31 renal
> 100 µM: all other assays above

CCC12CCCN(Cc3ccccc3)C1c1c([nH]c3ccccc13)C(C(=O)OC)C2 (stereo unspecified)
not listed: NCI-H226 lung | RXF 393 renal | A498 renal | EKVX NSCLC | UO-31 renal | NCI-H460 lung | SK-MEL-2 melanoma
> 10 µM: all other assays above
